What was measured:
[1] = test system: NCI-H226 cells; test: Cell growth assay (CellTiter-Glo); format: cell-based, human; settings: Homo sapiens, NCI-H226, 168 h, 7 days treatment, CellTiter-Glo luminescence, read-out: H226 CTG IC50
[2] = molecular target: TEAD1 (Homo sapiens, UniProt P28347); test: Thermal shift assay TEAD1; format: binding
Summary of the method: (§1)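 Protein melt reactions contained TEAD1 (0.2 mg/ml final) or TEAD2 (0.08 mg/ml final) plus compound at 1 or 10 μM in 0.1% DMSO. Thermal unfolding was followed by dye fluorescence on a qPCR instrument.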

[3] = molecular target: TEAD2 (Homo sapiens, UniProt Q15562); test: Thermal shift assay TEAD2; format: binding
Chain of TEAD2 (Q15562 whole entry, species assumed): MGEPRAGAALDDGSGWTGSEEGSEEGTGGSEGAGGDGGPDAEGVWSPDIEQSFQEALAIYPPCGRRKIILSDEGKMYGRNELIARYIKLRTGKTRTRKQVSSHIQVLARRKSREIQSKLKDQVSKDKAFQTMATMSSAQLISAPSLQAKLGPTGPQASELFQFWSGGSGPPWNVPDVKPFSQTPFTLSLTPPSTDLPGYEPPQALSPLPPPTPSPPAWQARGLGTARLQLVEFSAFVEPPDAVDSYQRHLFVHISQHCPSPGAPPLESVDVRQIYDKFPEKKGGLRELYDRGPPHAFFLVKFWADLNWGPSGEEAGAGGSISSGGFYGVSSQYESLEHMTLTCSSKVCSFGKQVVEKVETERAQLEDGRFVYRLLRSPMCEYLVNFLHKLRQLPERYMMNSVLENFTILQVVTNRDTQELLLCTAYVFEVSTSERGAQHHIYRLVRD
Summary of the method: as §1

[4] = molecular target: TEAD3 (Homo sapiens, UniProt Q99594); test: Thermal shift assay TEAD3; format: binding
Chain of TEAD3 (Q99594 whole entry, species assumed): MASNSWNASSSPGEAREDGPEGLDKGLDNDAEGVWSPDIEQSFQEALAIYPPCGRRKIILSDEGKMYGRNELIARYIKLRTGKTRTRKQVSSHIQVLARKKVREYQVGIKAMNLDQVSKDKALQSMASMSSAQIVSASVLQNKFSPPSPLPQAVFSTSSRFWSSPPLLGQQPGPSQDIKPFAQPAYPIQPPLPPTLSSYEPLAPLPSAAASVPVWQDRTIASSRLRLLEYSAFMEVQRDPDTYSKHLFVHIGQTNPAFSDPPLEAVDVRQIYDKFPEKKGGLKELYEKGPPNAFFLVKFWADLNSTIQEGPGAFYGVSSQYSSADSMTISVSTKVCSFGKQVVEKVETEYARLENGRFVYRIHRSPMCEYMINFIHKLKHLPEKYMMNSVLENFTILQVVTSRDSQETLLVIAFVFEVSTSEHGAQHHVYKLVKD
Summary of the method: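 Compounds at 1 or 10 μM (0.1% DMSO, PBS dilution) mixed with 0.1 mg/ml final TEAD3 and thermal shift dye, then run through a qPCR melt to follow protein unfolding.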

[5] = molecular target: TEAD4 (Homo sapiens, UniProt Q15561); test: Thermal shift assay TEAD4; format: binding
Chain of TEAD4 (Q15561 whole entry, species assumed): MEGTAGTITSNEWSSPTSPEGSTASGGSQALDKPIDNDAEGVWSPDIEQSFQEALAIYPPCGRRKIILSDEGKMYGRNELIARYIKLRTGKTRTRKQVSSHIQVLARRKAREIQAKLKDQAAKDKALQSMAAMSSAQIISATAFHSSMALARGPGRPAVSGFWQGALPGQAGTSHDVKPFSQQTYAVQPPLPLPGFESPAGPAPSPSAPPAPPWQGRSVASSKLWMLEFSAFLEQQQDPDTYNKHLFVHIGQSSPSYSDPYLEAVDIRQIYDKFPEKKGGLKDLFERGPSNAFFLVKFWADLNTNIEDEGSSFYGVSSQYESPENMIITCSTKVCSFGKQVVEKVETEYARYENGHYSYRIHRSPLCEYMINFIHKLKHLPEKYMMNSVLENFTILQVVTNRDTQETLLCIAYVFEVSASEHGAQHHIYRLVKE
Summary of the method: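 Compounds tested at 1 and 10 μM (0.1% DMSO, PBS) against TEAD4 protein at 0.1 mg/ml final. Melting followed by thermal shift dye fluorescence during a qPCR instrument ramp.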

Chain of TEAD1 (P28347 whole entry, species assumed): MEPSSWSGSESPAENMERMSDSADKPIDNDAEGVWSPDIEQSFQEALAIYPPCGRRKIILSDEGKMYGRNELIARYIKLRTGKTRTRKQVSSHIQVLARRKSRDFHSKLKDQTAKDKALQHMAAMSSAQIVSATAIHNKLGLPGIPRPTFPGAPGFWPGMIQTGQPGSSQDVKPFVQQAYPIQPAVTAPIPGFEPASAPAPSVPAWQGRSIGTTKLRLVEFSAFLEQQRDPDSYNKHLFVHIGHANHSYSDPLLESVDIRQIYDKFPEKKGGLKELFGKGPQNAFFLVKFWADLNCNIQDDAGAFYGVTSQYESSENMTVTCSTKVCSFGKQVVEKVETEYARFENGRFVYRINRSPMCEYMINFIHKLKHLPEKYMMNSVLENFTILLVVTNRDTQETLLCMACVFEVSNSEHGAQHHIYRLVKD

| Compound | IC50 [1] [nM] | TEAD1 ΔTm [2] [°C] | TEAD2 ΔTm [3] [°C] | TEAD3 ΔTm [4] [°C] | TEAD4 ΔTm [5] [°C] |
| --- | --- | --- | --- | --- | --- |
| Cn1cc2cc(Oc3ccc(C(F)(F)F)cc3)cc(C3C[C@H]3C(=O)N3C[C@@H]4C[C@H]3C[C@H]4O)c2n1 (single isomer, unassigned) [Example 103d] | < 100 | 9.5 | 11.6 | 10.3 | 11.2 |
| Cn1cc2cc(Oc3ccc(C(F)(F)F)cc3)cc(C3C[C@H]3C(=O)N3C[C@H]4C[C@@H]3C[C@H]4O)c2n1 (single isomer, unassigned) [Example 103e] | < 100 | 6.9 | 9.1 | 1.8 | 8.7 |
| Cn1cc2cc(Oc3ccc(C(F)(F)F)cc3)cc(C3C[C@H]3C(=O)N3[C@@H]4CC[C@H]3C[C@@H](O)C4)c2n1 (single isomer, unassigned) [Example 104] | < 100 | 6.5 | 9.0 | 2.0 | 8.1 |
| Cn1cc2cc(Oc3ccc(C(F)(F)F)cc3)cc(C3C[C@H]3C(=O)N3[C@@H]4CC[C@H]3C[C@H](O)C4)c2n1 (single isomer, unassigned) [Example 105] | < 100 | 6.8 | 8.2 | 2.2 | 8.1 |
| Cn1cc2nc(Oc3ccc(C(F)(F)F)cc3)cc([C@H]3C[C@@H]3C(=O)N3CC(O)C3)c2n1 (single isomer, unassigned) [Example 108b] | < 100 | 7.9 | 9.1 | 8.8 | 8.3 |
| CO[C@@H]1CN(C(=O)[C@@H]2C[C@H]2c2cc(Oc3ccc(C(F)(F)F)cc3)cc3cn(C)nc23)C[C@H]1O (single isomer, unassigned) [Example 112b] | < 100 | 8.4 | 10.2 | 1.9 | 10.1 |
| Cn1cc2cc(Oc3ccc(C(F)(F)F)cc3)cc([C@@H]3C[C@H]3C(=O)N3CC4CC3C(=O)N4)c2n1 (single isomer, unassigned) [Example 121] | < 100 | 7.9 | 10.6 | 2.0 | 8.9 |
| Cn1cc2cc(Oc3ccc(C(F)(F)F)cc3)cc([C@@H]3C[C@H]3C(=O)N3CC4CC(C3)N4)c2n1 (single isomer, unassigned) [Example 123] | < 100 | 7.7 | 9.1 | 1.8 | 9.2 |
| CN(C#N)C(=O)[C@@H]1C[C@H]1c1cc(Oc2ccc(C(F)(F)F)cc2)cc2cn(C)nc12 (single isomer, unassigned) [Example 124] | 1000 to 30000 | 6.0 | 9.8 | 1.0 | 7.7 |
| Cn1cc2cc(Oc3ccc(C(F)(F)F)cc3)cc([C@@H]3C[C@H]3C(=O)NCCO)c2n1 (single isomer, unassigned) [Example 125] | < 100 | 9.1 | 11.9 | 9.3 | 9.6 |
| Cn1cc2cc(Oc3ccc(C(F)(F)F)c(F)c3)cc([C@@H]3C[C@H]3C(=O)N3CC(O)C3)c2n1 (single isomer, unassigned) [Example 132] | < 100 | 10.9 | 15.8 | 13.9 | 13.7 |
| Cn1cc2cc(Oc3ccc(C(F)(F)F)cc3)cc([C@@H]3C[C@H]3C(=O)N=S(C)(C)=O)c2n1 (single isomer, unassigned) [Example 134] | < 100 | 6.8 | 6.0 | 1.5 | 5.8 |
| Cn1cc2cc(Oc3ccc(C(F)(F)F)cc3)cc([C@@H]3C[C@H]3C(=O)N3CCC34CC(=O)C4)c2n1 (single isomer, unassigned) [Example 135] | 100 to 500 | 25.0 | 25.0 | 18.0 | 6.9 |
| Cn1cc2cc(Oc3ccc(Cl)cc3)cc([C@@H]3C[C@H]3C(=O)N3C[C@@H]4C[C@H]3C[C@@H]4O)c2n1 (single isomer, unassigned) [Example 139] | < 100 | 5.5 | 9.2 | 2.8 | 7.6 |
| Cn1cc2cc(Oc3ccc(C(F)(F)F)c(F)c3)cc([C@@H]3C[C@H]3C(=O)N3C[C@@H]4C[C@H]3C[C@@H]4O)c2n1 (single isomer, unassigned) [Example 140] | < 100 | 7.6 | 11.1 | 8.9 | 10.6 |
| CN(C)C(=O)[C@@H]1C[C@H]1c1cc(Oc2ccc(C(F)(F)F)c(F)c2)cc2cn(C)nc12 (single isomer, unassigned) [Example 141] | < 100 | 9.3 | 16.2 | 11.4 | 12.0 |
| CNC(=O)[C@@H]1CC1c1cc(-c2ccc(C(F)(F)F)cc2)cc2c1cnn2C (stereo partly drawn) [Example 40] | 100 to 500 | 1.9 | 2.7 | 0.2 | 0.7 |
| CNS(=O)(=O)/C=C/c1cc(-c2ccc(C(F)(F)F)cc2)cc2c1cnn2C [Example 41] | < 100 | 2.1 | 1.2 | 0.7 | 1.4 |
| CNS(=O)(=O)CCc1cc(-c2ccc(C(F)(F)F)cc2)cc2c1cnn2C [Example 42] | < 100 | 7.3 | 4.1 | 3.5 | 3.8 |
| CC(=O)NS(=O)(=O)CCc1cc(-c2ccc(C(F)(F)F)cc2)cc2cn(C)nc12 [Example 46] | 1000 to 30000 | 10.4 | 10.9 | 7.2 | 11.2 |
| CNS(=O)(=O)CCCc1cc(-c2ccc(C(F)(F)F)cc2)cc2cn(C)nc12 [Example 47] | 1000 to 30000 | 4.7 | 1.9 | −0.8 | 5.7 |
| CNS(=O)(=O)CCc1cc(N2CCC3(CCCC3)CC2)cc2cn(C)nc12 [Example 48] | 1000 to 30000 | 6.3 | 9.4 | 1.9 | 8.4 |
| CNS(=O)(=O)CCc1cc(Oc2ccc(C(F)(F)F)cc2)cc2cccnc12 [Example 142] | 100 to 500 | 8.9 | 11.4 | 10.2 | 9.7 |
| CNS(=O)(=O)CCc1cc(Oc2ccc(C(F)(F)F)cc2)cc2c1NCCC2 [Example 143] | < 100 | 9.6 | 13.2 | 10.3 | 8.8 |

Reference: patent publication US12103915B2, “TEAD inhibitors and methods of uses thereof” (Insilico Medicine IP Limited, priority 2022, dated 2024)
